Laboratory results from paper PMC9886279, “A choline-releasing glycerophosphodiesterase essential for phosphatidylcholine biosynthesis and blood stage development in the malaria parasite” (eLife, 2022).

Molecular target: T1, PfGDPD-HA (PfGDPD; glycerophosphodiesterase) (Plasmodium falciparum, UniProt Q8IM31)
T1 construct: gene PF3D7_1406300; endogenous locus, recodonised segment 24-475 aa, C-terminal 3xHA tag kept; 475-residue precursor with N-terminal signal peptide
Test: LC-MS/MS of GPC consumption and choline release by bead-bound affinity-purified enzyme
Assay type: biochemical
Conditions: enzyme immobilised on anti-HA beads; 100 mM HEPES pH 7.5, 150 mM NaCl, 10 mM MgCl2, 37°C; GPC 1 mM (Methods) or 10 mM (Figure 6 legend)

T1 sequence (Q8IM31 entry or part of it): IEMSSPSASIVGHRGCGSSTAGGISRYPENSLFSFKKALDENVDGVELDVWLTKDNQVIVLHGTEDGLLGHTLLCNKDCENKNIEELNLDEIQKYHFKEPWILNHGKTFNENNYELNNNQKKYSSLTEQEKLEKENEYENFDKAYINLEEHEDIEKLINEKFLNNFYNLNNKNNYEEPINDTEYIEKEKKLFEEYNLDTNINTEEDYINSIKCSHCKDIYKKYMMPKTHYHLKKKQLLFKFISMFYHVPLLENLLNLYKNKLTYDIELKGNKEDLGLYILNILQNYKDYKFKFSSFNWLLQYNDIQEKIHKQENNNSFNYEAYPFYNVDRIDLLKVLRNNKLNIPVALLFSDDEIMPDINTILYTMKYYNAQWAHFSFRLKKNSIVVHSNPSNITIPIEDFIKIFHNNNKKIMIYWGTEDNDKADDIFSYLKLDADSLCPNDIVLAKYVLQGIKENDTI

SMILES: C[N+](C)(C)CCOP(=O)([O-])OC[C@H](O)CO [GPC]
- LC-MS/MS of GPC consumption and choline release by bead-bound affinity-purified: resulted in the time-dependent appearance of choline with a concomitant decrease in GPC levels
